# Measurements reported in patent US6900019B1, “In-situ cell extraction and assay method” (Amersham Biosciences UK Limited, priority 1997, dated 2005).
# Target: T1, Interleukin-6 / anti-IL-6 antibody binding (Homo sapiens, UniProt P05231)
# T1 construct: purchased Amersham RPN 2754
# Experiment: IL-6 ELISA standard curves with lysis reagent and sequestrant
# Settings: 1% DTAB in standards
# Experimental: Working standards (10.24400 pg/ml IL-6) were prepared in polypropylene tubes using assay buffer containing 1% (w/v) DTAB. The biotinylated antibody was prepared in buffer containing 3% (w/v) alpha-cyclodextrin. 50 μl of biotinylated antibody (containing cyclodextrin) was added to the anti-IL-6 coated plate. 50 μl of working standard and cell lysate was pipetted into separate wells of the anti-IL-6 coated plate. Non-specific binding was measured in the absence of IL-6 (zero IL-6 standard). The order of addition of biotinylated antibody and samples/standards is not critical to the procedure. […] The optical density was determined with a microtitre plate spectrophotometer set at 450 nm. Interleukin-6 levels were determined using log/linear analysis with reference to a standard curve. […]
# (§1) Interleukin-6 standards (10.24-400 pg/ml) were prepared in standard diluent either in the presence (□) or absence (●) of lysis reagent (1% w/v DTAB). […] The plate was incubated for 2 hours at room temperature, and the optical density measured as described under the methods section.
# as §1
# T1 sequence (P05231 30-212): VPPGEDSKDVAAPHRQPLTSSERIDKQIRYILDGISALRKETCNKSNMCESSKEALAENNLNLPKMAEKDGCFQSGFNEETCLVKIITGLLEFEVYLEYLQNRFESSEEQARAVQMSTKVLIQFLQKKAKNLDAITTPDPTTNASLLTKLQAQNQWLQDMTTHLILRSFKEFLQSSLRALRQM
antibody binding in the IL-6 ELISA (3% (w/v) alpha-cyclodextrin in biotinylated antibody),SMILES,antibody binding in the IL-6 ELISA (zero cyclodextrin)
Binding was restored,"OC[C@H]1O[C@@H]2O[C@H]3[C@H](O)[C@@H](O)[C@@H](O[C@H]4[C@H](O)[C@@H](O)[C@@H](O[C@H]5[C@H](O)[C@@H](O)[C@@H](O[C@H]6[C@H](O)[C@@H](O)[C@@H](O[C@H]7[C@H](O)[C@@H](O)[C@@H](O[C@H]1[C@H](O)[C@H]2O)O[C@@H]7CO)O[C@@H]6CO)O[C@@H]5CO)O[C@@H]4CO)O[C@@H]3CO [CD, alpha-cyclodextrin]",–
–,"CCCCCCCCCCCC[N+](C)(C)C.[Br-] [DTAB, dodecyl trimethyl ammonium bromide]",inhibition of antibody binding
